# Active and inactive are the calls of the source. The rule behind the calls is not given here.
# Assays:
# Acinetobacter baumannii [1] = experiment: Antimicrobial activity against Acinetobacter baumannii ATCC 17978 by microdilution broth method; assay type: functional
# Acinetobacter baumannii [2] = experiment: Antimicrobial activity against multidrug-resistant Acinetobacter baumannii AYE by microdilution broth method; assay type: functional
# Klebsiella pneumoniae [3] = experiment: Antimicrobial activity against Klebsiella pneumoniae M6 by microdilution broth method; assay type: functional
# Klebsiella pneumoniae [4] = experiment: Antimicrobial activity against multidrug-resistant Klebsiella pneumoniae NCTC 13368 by microdilution broth method; assay type: functional
# Pseudomonas aeruginosa [5] = experiment: Antimicrobial activity against Pseudomonas aeruginosa PAO1 by microdilution broth method; assay type: functional
# Pseudomonas aeruginosa [6] = experiment: Antimicrobial activity against multidrug-resistant Pseudomonas aeruginosa NCTC 13437 by microdilution broth method; assay type: functional
# Enterococcus faecium = experiment: Antibacterial activity against vancomycin resistant Enterococcus faecium NCTC 12204 by microdilution broth method; assay type: functional
# Enterococcus faecalis [7] = experiment: Antibacterial activity against vancomycin resistant Enterococcus faecalis NCTC 12201 by microdilution broth method; assay type: functional
# Enterococcus faecalis [8] = experiment: Antibacterial activity against vancomycin sensitive Enterococcus faecalis NCTC 775 by microdilution broth method; assay type: functional
# Staphylococcus aureus [9] = experiment: Antibacterial activity against methicillin resistant Staphylococcus aureus NCTC 13616 by microdilution broth method; assay type: functional
# Staphylococcus aureus [10] = experiment: Antibacterial activity against methicillin resistant Staphylococcus aureus NCTC 13277 by microdilution broth method; assay type: functional
# Staphylococcus aureus [11] = experiment: Antibacterial activity against methicillin sensitive Staphylococcus aureus NCTC 6571 by microdilution broth method; assay type: functional
# DNA [12] = experiment: Stabilization of 5'-FAM-TAT-ATA-TAG-ATA-TTT-TTT-TAT-CTA-TAT-ATA-3'-TAMRA DNA (unknown origin) assessed as reduction in change in melting temperature at 1:1 to 5:1 ligand to DNA ratio measured after 3 hrs by FRET-based assay relative to control; assay type: ADME, nucleic-acid assay
# DNA [13] = experiment: Stabilization of 5'-FAM-TAT-AGA-TAT-AGA-TAT-TTT-ATA-TCT-ATA-TCT-ATA-3'-TAMRA DNA (unknown origin) assessed as reduction in change in melting temperature at 1:1 to 5:1 ligand to DNA ratio measured after 3 hrs by FRET-based assay relative to control; assay type: ADME, nucleic-acid assay
# [14] = Cytotoxicity against human WI38 cells assessed as cell viability at 20 uM measured after 24 hrs by MTT assay relative to control; assay type: cell-based, WI-38; conditions: read-out: Activity
# [15] = Selectivity ratio of cytotoxicity against human WI38 cells to MIC for Acinetobacter baumannii ATCC 17978; assay type: toxicity, cell-based
# [16] = Selectivity ratio of cytotoxicity against human WI38 cells to MIC for multidrug-resistant Acinetobacter baumannii AYE; assay type: toxicity, cell-based
# [17] = Selectivity ratio of cytotoxicity against human WI38 cells to MIC for Klebsiella pneumoniae M6; assay type: toxicity, cell-based
# [18] = Selectivity ratio of cytotoxicity against human WI38 cells to MIC for multidrug-resistant Klebsiella pneumoniae NCTC 13368; assay type: toxicity, cell-based
# [19] = Selectivity ratio of cytotoxicity against human WI38 cells to MIC for Pseudomonas aeruginosa PAO1; assay type: toxicity, cell-based
# [20] = Selectivity ratio of cytotoxicity against human WI38 cells to MIC for multidrug-resistant Pseudomonas aeruginosa NCTC 13437; assay type: toxicity, cell-based
# [21] = Selectivity ratio of cytotoxicity against human WI38 cells to MIC for vancomycin resistant Enterococcus faecium NCTC 12204; assay type: toxicity, cell-based
# [22] = Selectivity ratio of cytotoxicity against human WI38 cells to MIC for vancomycin resistant Enterococcus faecalis NCTC 12201; assay type: toxicity, cell-based
# [23] = Selectivity ratio of cytotoxicity against human WI38 cells to MIC for vancomycin sensitive Enterococcus faecalis NCTC 775; assay type: toxicity, cell-based
# [24] = Selectivity ratio of cytotoxicity against human WI38 cells to MIC for methicillin resistant Staphylococcus aureus NCTC 13616; assay type: toxicity, cell-based
# [25] = Selectivity ratio of cytotoxicity against human WI38 cells to MIC for methicillin resistant Staphylococcus aureus NCTC 13277; assay type: toxicity, cell-based
# [26] = Selectivity ratio of cytotoxicity against human WI38 cells to MIC for methicillin sensitive Staphylococcus aureus NCTC 6571; assay type: toxicity, cell-based
# [27] = molecular target: T1, Protein RecA (Escherichia coli K-12) (UniProt P0A7G6); experiment: Induction of Escherichia coli K12 MG1655 recA promotor measured at 30 mins interval for 20 hrs by fluorescence assay relative to control; conditions: Escherichia coli str. K-12 substr. MG1655
# T1 sequence (whole entry): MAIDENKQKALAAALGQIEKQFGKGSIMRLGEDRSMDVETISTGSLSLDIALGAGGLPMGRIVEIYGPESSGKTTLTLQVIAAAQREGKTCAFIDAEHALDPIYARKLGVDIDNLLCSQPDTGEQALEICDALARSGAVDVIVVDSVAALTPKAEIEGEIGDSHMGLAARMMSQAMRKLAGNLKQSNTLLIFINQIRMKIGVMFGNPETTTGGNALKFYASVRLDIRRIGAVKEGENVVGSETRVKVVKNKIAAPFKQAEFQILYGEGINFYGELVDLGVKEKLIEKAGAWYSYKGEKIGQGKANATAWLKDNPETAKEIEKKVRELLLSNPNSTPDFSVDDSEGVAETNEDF
# [28] = molecular target: T2, LexA repressor (Escherichia coli) (UniProt P0A7C2); experiment: Induction of Escherichia coli K12 MG1655 lexA promotor measured at 30 mins interval for 20 hrs by fluorescence assay relative to control; conditions: Escherichia coli str. K-12 substr. MG1655
# T2 sequence (whole entry): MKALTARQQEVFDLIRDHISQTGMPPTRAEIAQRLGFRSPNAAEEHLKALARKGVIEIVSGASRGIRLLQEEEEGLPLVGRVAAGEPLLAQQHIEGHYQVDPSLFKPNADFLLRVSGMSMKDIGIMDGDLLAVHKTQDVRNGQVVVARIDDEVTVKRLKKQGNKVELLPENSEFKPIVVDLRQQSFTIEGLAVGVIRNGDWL
# [29] = molecular target: T3, DNA repair protein RecN (Escherichia coli) (UniProt P05824); experiment: Induction of Escherichia coli K12 MG1655 recN promotor measured at 30 mins interval for 20 hrs by fluorescence assay relative to control; conditions: Escherichia coli str. K-12 substr. MG1655
# T3 sequence (whole entry): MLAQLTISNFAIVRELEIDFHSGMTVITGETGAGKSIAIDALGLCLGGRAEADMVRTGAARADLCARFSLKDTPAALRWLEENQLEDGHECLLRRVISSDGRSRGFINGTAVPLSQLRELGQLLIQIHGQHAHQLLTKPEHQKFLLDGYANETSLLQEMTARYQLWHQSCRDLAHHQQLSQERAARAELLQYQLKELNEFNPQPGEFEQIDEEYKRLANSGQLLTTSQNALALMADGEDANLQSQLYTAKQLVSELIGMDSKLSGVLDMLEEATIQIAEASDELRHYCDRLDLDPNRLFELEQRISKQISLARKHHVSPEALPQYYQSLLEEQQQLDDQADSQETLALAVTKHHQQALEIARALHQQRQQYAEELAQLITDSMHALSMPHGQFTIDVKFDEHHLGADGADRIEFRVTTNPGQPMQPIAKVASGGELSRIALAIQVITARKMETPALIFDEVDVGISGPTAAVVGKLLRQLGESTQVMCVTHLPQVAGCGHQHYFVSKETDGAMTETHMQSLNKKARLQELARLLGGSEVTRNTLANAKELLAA
# [30] = molecular target: T4, Cell division inhibitor SulA (Escherichia coli K-12) (UniProt P0AFZ5); experiment: Induction of Escherichia coli K12 MG1655 sulA promotor measured at 30 mins interval for 20 hrs by fluorescence assay relative to control; conditions: Escherichia coli str. K-12 substr. MG1655
# T4 sequence (whole entry): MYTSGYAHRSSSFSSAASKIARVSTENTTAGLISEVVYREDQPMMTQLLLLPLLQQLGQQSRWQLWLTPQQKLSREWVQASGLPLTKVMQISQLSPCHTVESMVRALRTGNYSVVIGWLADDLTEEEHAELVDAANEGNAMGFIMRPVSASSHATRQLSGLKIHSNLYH
Structure (SMILES),MIC (Acinetobacter baumannii [1]) [µg/mL],MIC (Acinetobacter baumannii [2]) [µg/mL],MIC (Klebsiella pneumoniae [3]) [µg/mL],MIC (Klebsiella pneumoniae [4]) [µg/mL],MIC (Pseudomonas aeruginosa [5]) [µg/mL],MIC (Pseudomonas aeruginosa [6]) [µg/mL],MIC (Enterococcus faecium) [µg/mL],MIC (Enterococcus faecalis [7]) [µg/mL],MIC (Enterococcus faecalis [8]) [µg/mL],MIC (Staphylococcus aureus [9]) [µg/mL],MIC (Staphylococcus aureus [10]) [µg/mL],MIC (Staphylococcus aureus [11]) [µg/mL],fold change (FC) (DNA [12]),fold change (FC) (DNA [13]),"viability at 24 h, 20 µM [14] [%]",selectivity ratio [15],selectivity ratio [16],selectivity ratio [17],selectivity ratio [18],selectivity ratio [19],also measured
CCN(CC)C(=O)c1cc2cc(NC(=O)c3cc(NC(=O)CCCOc4cc5c(cc4OC)C(=O)N4CCC[C@H]4C=N5)cn3C)ccc2o1,4,4,8,64,128,32,≤ 0.125,≤ 0.125,0.25,0.25,0.5,≤ 0.125,3 to 4,3 to 4,> 85,10,10,10,10,10,selectivity ratio [20]: 10; selectivity ratio [21]: 100; selectivity ratio [22]: 100; selectivity ratio [23]: 100; selectivity ratio [24]: 100; selectivity ratio [25]: 100; selectivity ratio [26]: 100
COc1cc2c(cc1OCCCC(=O)Nc1cc(C(=O)Nc3ccc(-c4cc(C(=O)N5CCOCC5)n(C)c4)cc3)n(C)c1)N=C[C@@H]1CCCN1C2=O,4,2,2,32,> 128,> 128,≤ 0.125,≤ 0.125,≤ 0.125,≤ 0.125,≤ 0.125,≤ 0.125,3 to 4,3 to 4,> 85,10,10,10,10,10,selectivity ratio [20]: 10; selectivity ratio [21]: 100; selectivity ratio [22]: 100; selectivity ratio [23]: 100; selectivity ratio [24]: 100; selectivity ratio [25]: 100; selectivity ratio [26]: 100
COc1cc2c(cc1OCCCC(=O)Nc1cc(C(=O)Nc3ccc(-c4cc(C(=O)N5CCCCC5)n(C)c4)cc3)n(C)c1)N=C[C@@H]1CCCN1C2=O,2,2,16,> 128,> 128,> 128,≤ 0.03,≤ 0.03,0.125,0.06,0.125,≤ 0.03,3 to 4,3 to 4,> 85,10,10,10,10,10,selectivity ratio [20]: 10; selectivity ratio [21]: 100; selectivity ratio [22]: 100; selectivity ratio [23]: 100; selectivity ratio [24]: 100; selectivity ratio [25]: 100; selectivity ratio [26]: 100
COc1cc2c(cc1OCCCC(=O)Nc1cc(C(=O)Nc3ccc(-c4cc(C(=O)N5CCSCC5)n(C)c4)cc3)n(C)c1)N=C[C@@H]1CCCN1C2=O,2,2,4,> 32,> 32,> 32,≤ 0.03,≤ 0.03,≤ 0.03,≤ 0.03,0.06,≤ 0.03,3 to 4,3 to 4,> 85,10,10,10,10,10,selectivity ratio [20]: 10; selectivity ratio [21]: 100; selectivity ratio [22]: 100; selectivity ratio [23]: 100; selectivity ratio [24]: 100; selectivity ratio [25]: 100; selectivity ratio [26]: 100
CC1(C)S[C@@H]2[C@H](NC(=O)[C@H](N)c3ccccc3)C(=O)N2[C@H]1C(=O)O,–,–,–,–,–,–,–,–,–,–,–,–,–,–,–,–,–,–,–,–,Activity [27]: inactive; Activity [28]: inactive; Activity [29]: inactive; Activity [30]: inactive
COC(=O)c1cc(NC(=O)c2cc(NC(=O)CCCOc3cc4c(cc3OC)C(=O)N3CCC[C@H]3C=N4)cn2C)cn1C,128,128,> 128,> 128,128,> 128,0.5,0.5,1,1,2,0.5,3 to 4,3 to 4,35,–,–,–,–,–,–
CO[C@H]1/C=C/O[C@@]2(C)Oc3c(C)c(O)c4c(O)c(c(/C=N/N5CCN(C)CC5)c(O)c4c3C2=O)NC(=O)/C(C)=C\C=C\[C@H](C)[C@H](O)[C@@H](C)[C@@H](O)[C@@H](C)[C@H](OC(C)=O)[C@@H]1C,–,–,–,–,–,–,–,–,–,–,–,–,–,–,–,–,–,–,–,–,Activity [27]: inactive; Activity [28]: inactive; Activity [29]: inactive; Activity [30]: inactive
CO[C@@H]1[C@@H](OC(N)=O)[C@@H](O)[C@H](Oc2ccc3c(O)c(NC(=O)c4ccc(O)c(CC=C(C)C)c4)c(=O)oc3c2C)OC1(C)C,–,–,–,–,–,–,–,–,–,–,–,–,–,–,–,–,–,–,–,–,fold change (FC) [27]: 20 to 35; fold change (FC) [28]: 5 to 13; fold change (FC) [29]: 14 to 32; fold change (FC) [30]: 17 to 41

# From ChEMBL document CHEMBL4610120, “New Broad-Spectrum Antibiotics Containing a Pyrrolobenzodiazepine Ring with Activity against Multidrug-Resistant Gram-Negative Bacteria” (J Med Chem, 2020)
